# In article PMC12644462, “A novel radiosensitizer α-sulfoquinovosyl-acylpropanediol (SQAP) inhibits DNA repair pathways and sensitize cells to cancer chemotherapeutic agents” (Scientific Reports, 2025):
# Structures can show the parent of a compound that is named as a salt. Where two headings read alike, the source gives them in different places.
# Legend:
# [1] = system: Chinese hamster V79 cells; assay: Colony formation assay, radio- and chemosensitization; assay type: cell-based
# Protocol: For hypoxia irradiation, cell cultures were placed in Aneropak Kenki system (Mitsubishi Gas Chemical, Tokyo, Japan) with oxygen meter to confirm pO2 below 0.1%. Cells were kept in hypoxia for 3 h before irradiation.
# [2] = system: CML-6M and STSA-1 cells; assay: Colony formation assay, chemosensitization by SQAP (qualitative); assay type: cell-based, canine; conditions: for sensitization of chemotherapeutic agent by SQAP: combined with 30 µM SQAP
# Protocol: Sensitivity to radiation or chemical reagents was assessed through colony formation assays. After trypsinized single cells were plated to form 20–200 colonies per dish and then treated with SQAP for 3 h in normoxia or hypoxia, the cells were irradiated. For drug sensitivity study, trypsinized cells were plated and then treated with various dosage of testing agents. After seven days of incubation, colonies were fixed, stained and scored. Regression curves were drawn from survival fraction, and D10 values (doses to achieve 10% cell survival) were calculated by Prism 8 (GraphPad software, San Diego, CA, USA) from at least three independent experiments. Oxygen enhancement ratio (OER) and sensitization enhancement ratio (SER) values were calculated from D10 values. OER values were calculated from the D10 value in hypoxia divided by the D10 value in normoxic condition. SER values were calculated from the D10 value without SQAP divided by the D10 value with SQAP.
# [3] = system: STSA-1 cells; assay: Colony formation assay, drug sensitivity with SQAP; assay type: cell-based, canine
# Protocol: (§1) Sensitivity to radiation or chemical reagents was assessed through colony formation assays. After trypsinized single cells were plated to form 20–200 colonies per dish and then treated with SQAP for 3 h in normoxia or hypoxia, the cells were irradiated. For drug sensitivity study, trypsinized cells were plated and then treated with various dosage of testing agents. After seven days of incubation, colonies were fixed, stained and scored[24]. Regression curves were drawn from survival fraction, and D10 values (doses to achieve 10% cell survival) were calculated by Prism 8 (GraphPad software, San Diego, CA, USA) from at least three independent experiments. Oxygen enhancement ratio (OER) and sensitization enhancement ratio (SER) values were calculated from D10 values. OER values were calculated from the D10 value in hypoxia divided by the D10 value in normoxic condition. SER values were calculated from the D10 value without SQAP divided by the D10 value with SQAP.
# [4] = system: CML-6M cells; assay: Colony formation assay, drug sensitivity with SQAP; assay type: cell-based, canine
# Protocol: as §1
compound,measurement,setting,value
"CC[C@@]1(O)C(=O)OCc2c1cc1n(c2=O)Cc2cc3ccccc3nc2-1 [camptothecin, Camptothecin]",effect of SQAP on cytotoxicity of the agent,"[1]; V79, 10 and 20 µM SQAP",increased the cytotoxicity
same,change of D10 value of the agent with SQAP treatment,"[1]; V79, P < 0.05",significant reduction
"O=C1c2c(O)ccc(O)c2C(=O)c2c(NCCNCCO)ccc(NCCNCCO)c21 [Mitoxantrone, Mitoxantrone dihydrochloride]",sensitization of chemotherapeutic agent by SQAP,[2],significant sensitization
"COS(C)(=O)=O [MMS, methyl methanesulfonate]",effect of SQAP on cytotoxicity of the agent,[1],increased the cytotoxicity
COc1cc([C@@H]2c3cc4c(cc3[C@@H](O[C@@H]3O[C@@H]5CO[C@@H](C)O[C@H]5[C@H](O)[C@H]3O)[C@H]3COC(=O)[C@H]23)OCO4)cc(OC)c1O [etoposide],effect of SQAP on cytotoxicity of the agent,[1],increased the cytotoxicity
"CO[C@@]12[C@H](COC(N)=O)C3=C(C(=O)C(C)=C(N)C3=O)N1C[C@@H]1N[C@@H]12 [MMC, Mitomycin C]",effect of SQAP on cytotoxicity of the agent,"[1]; V79, 10 and 20 µM SQAP",increased the cytotoxicity
CC(=O)O[C@H]1C(=O)[C@@]2(C)[C@H]([C@H](OC(=O)c3ccccc3)[C@]3(O)C[C@H](OC(=O)[C@H](O)[C@@H](NC(=O)c4ccccc4)c4ccccc4)C(C)=C1C3(C)C)[C@]1(OC(C)=O)CO[C@@H]1C[C@@H]2O [Taxol],effect of SQAP on cytotoxicity of the agent,[1],increased the cytotoxicity
"O=C(O)CCCc1ccc(N(CCCl)CCCl)cc1 [chlorambucil, Chlorambucil]",sensitization of chemotherapeutic agent by SQAP,[2],no sensitization
bleomycin,change of D10 value of the agent with SQAP treatment,[1],significant reduction
same,sensitization to bleomycin by SQAP,[1],sensitized and not
O=NN(CCCl)C(=O)NC1CCCCC1 [lomustine],sensitization of chemotherapeutic agent by SQAP,[2],no sensitization
N.N.O=C([O-])C1(C(=O)[O-])CCC1.[Pt+2] [carboplatin],sensitization of chemotherapeutic agent by SQAP,[2],significant sensitization
N.N.[Cl][Pt][Cl] [cisplatin],change of D10 value of the agent with SQAP treatment,"[1]; V79, P < 0.05",significant reduction
C[C@]12C=CC(=O)C=C1CC[C@@H]1[C@@H]2[C@@H](O)C[C@@]2(C)[C@H]1CC[C@]2(O)C(=O)CO [prednisolone],cytotoxicity (D10 not available),[2]; colony formation,low cytotoxicity
same,sensitization of chemotherapeutic agent by SQAP,[2],no sensitization
"COc1cccc2c1C(=O)c1c(O)c3c(c(O)c1C2=O)C[C@@](O)(C(=O)CO)C[C@@H]3O[C@H]1C[C@H](N)[C@H](O)[C@H](C)O1 [doxorubicin, Doxorubicin hydrochloride]",D10,"[3]; STSA-1, with 30 µM SQAP",4.66 nM
same,D10,"[3]; STSA-1, without SQAP",8.11 nM
same,D10,[4]; with 30 µM SQAP,8.94 nM
same,D10,[4]; without SQAP,18.0 nM
same,sensitization of chemotherapeutic agent by SQAP,[2],most dramatic sensitization
